Source: patent US8304419B2, “Chemical compounds” (priority 2007, dated 2012)
Counter-ions that a name gives are not always drawn.

Tested on: HIV wild type (WTRVA)
Assay: HeLa cell assay, wild type virus (WTRVA)
Type: cell-based, HIV-1
Design: scale not given here
Conditions: Human immunodeficiency virus 1, HeLa, HeLa-CD4-LTR-β-gal cells, wild type virus; read-out: WTRVA activity level

Compound: N#Cc1cc(Cl)cc(Oc2cc(CNC(=O)c3ccc(S(N)(=O)=O)cc3Cl)ccc2Cl)c1 [Example 4, 4-(aminosulfonyl)-2-chloro-N-({4-chloro-3-[(3-chloro-5-cyanophenyl)oxy]phenyl}methyl)benzamide trifluoroacetate]
- IC50: 10 to 1000 nM
